Test results published in ChEMBL document CHEMBL1132511, “Stereospecific synthesis of a GS 4104 metabolite: determination of absolute stereochemistry and influenza neuraminidase inhibitory activity” (Bioorg Med Chem Lett, 1999).

What was measured:
[1] = biological target: Neuraminidase (Influenza A virus (A/Puerto Rico/8/1934(H1N1)), UniProt P03468); test: In vitro inhibitory activity against influenza A neuraminidase using enzymatic assay
Influenza B virus = test: In vitro inhibitory activity against influenza B neuraminidase using enzymatic assay; format: functional

Chain of Neuraminidase (Influenza A virus (A/Puerto Rico/8/1934(H1N1)), UniProt P03468) (P03468 whole entry): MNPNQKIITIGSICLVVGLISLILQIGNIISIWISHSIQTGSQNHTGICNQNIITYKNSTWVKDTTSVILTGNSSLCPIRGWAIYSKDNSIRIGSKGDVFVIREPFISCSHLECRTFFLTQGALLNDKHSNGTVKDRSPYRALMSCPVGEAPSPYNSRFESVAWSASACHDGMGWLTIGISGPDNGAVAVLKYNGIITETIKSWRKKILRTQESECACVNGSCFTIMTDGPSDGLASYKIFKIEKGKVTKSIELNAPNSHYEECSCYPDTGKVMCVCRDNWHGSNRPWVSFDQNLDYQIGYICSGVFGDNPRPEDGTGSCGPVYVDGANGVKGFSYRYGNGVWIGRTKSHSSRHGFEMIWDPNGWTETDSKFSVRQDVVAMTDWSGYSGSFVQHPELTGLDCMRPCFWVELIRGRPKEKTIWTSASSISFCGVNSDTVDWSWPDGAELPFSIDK

SMILES: CC[C@H](CC(=O)O)O[C@@H]1C=C(C(=O)O)C[C@H](N)[C@H]1NC(C)=O
- IC50 [1]: 1150 nM

SMILES: CC[C@@H](CCO)O[C@@H]1C=C(C(=O)O)C[C@H](N)[C@H]1NC(C)=O
- IC50 (Influenza B virus): 85 nM
- IC50 [1]: 30 nM

SMILES: CC[C@@H](CC(=O)O)O[C@@H]1C=C(C(=O)O)C[C@H](N)[C@H]1NC(C)=O
- IC50 [1]: 450 nM

SMILES: CC[C@H](CCO)O[C@@H]1C=C(C(=O)O)C[C@H](N)[C@H]1NC(C)=O
- IC50 (Influenza B virus): 400 nM
- IC50 [1]: 40 nM

SMILES: CCC(CC)O[C@@H]1C=C(C(=O)O)C[C@H](N)[C@H]1NC(C)=O [OSELTAMIVIR CARBOXYLATE]
- IC50 (Influenza B virus): 4 nM
